Assay results as given in US12678446B2 (PFIZER INC., priority 2020, dated 2026).

Assays:
[1] = system: RSV (RSV A2 ECACC, 0709161v); assay: RSV plaque reduction assay; assay type: cell-based, respiratory syncytial virus; conditions: human respiratory syncytial virus, HepG2, read-out: RSV A2 Plaque EC50, RSV A2 in Hep-G2 cells; mean of at least two experiments unless noted (n = 1)
Description: Compounds w ere subjected to RSV plaque reduction assays according to the following protocol.
Hep-G2 cells (ECACC, 85011430) were passaged in flasks and seeded in 24-well plates in DMEM containing antibiotics and supplemented with 10% FBS. During inoculation and subsequent incubation, cells were cultured in DMEM containing 2% FBS. 100 plaque forming unit/well of RSV (RSV A2 ECACC, 0709161v) was mixed with eight serial dilutions of compound. Subsequently, 100 μL of the virus/compound mixtures was added to confluent Hep-G2 cell monolayers. The cells and virus/compound mixtures were incubated at 37° C. in a humidified 5% CO2 incubator for 2 h prior to removal of the inoculum and addition of 1 mL of overlay (DMEM containing 2% FBS and 0.8% CMC) containing compound dilutions. The cells and were incubated at 37° C. in a humidified 5% CO2 incubator for 2 days.
Cells were washed with PBS before adding 75/25% v/v EtOH MeOH, for 3 min. Fixative was removed and plates were washed with PBS. A pre-titrated amount of the primary antibody was added in 200 μL PBS/2% milk powder, and plates incubated for 90 min at 37° C. The plates were washed 3 times with PBS/0.05% Tween20 before addition of rabbit anti-goat horse radish peroxidase in 200 μL PBS/2% milk powder, and incubated for 1 h at 37° C. Following three wash steps with PBS/0.05% Tween20, 200 μL ready-to-use TrueBlue was added and plates were incubated at rt for 10-15 min before washing with water. After removal of water, plates were air-dried in the dark.
Plates were scanned and analysed using the Immunospot S6 Macro analyser, which is equipped with BioSpot analysis software for counting immunostained plaques (virospots). Plaque counts were used to calculate % infection relative to the mean of the plaque count in the virus control wells for RSV. […] Unless otherwise noted, plaque EC50 and cell toxicity CC50 values are a mean of at least two experiments and figures are rounded to whole units.

cell toxicity CC50 = assay type: cell-based; conditions: human; Hep-G2 cells; mean of at least two experiments; read-out: Cell Cytotoxicity CC50

Row | SMILES | EC50 [1] [nM] | CC50 (cell toxicity CC50) [µM]
1 | C[C@@H]1CCn2nc(-c3ccc(N4C[C@H]5C[C@@H]4CO5)nc3F)c(C(=O)N[C@H]3N=C(c4ccccc4)c4cccc(F)c4NC3=O)c2O1 (single isomer, unassigned) [Example 90] | 20 | > 25
2 | CCc1ccc(-c2nn3c(c2C(=O)N[C@H]2N=C(c4ccccc4)c4ccccc4NC2=O)OCC2(CCC2)C3)cn1 [Example 176, 2-(6-Ethylpyridin-3-yl)-N-[(3S)-2-oxo-5-phenyl-1,3-dihydro-1,4-benzodiazepin-3-yl]spiro[5,7-dihydropyrazolo[5,1-b][1,3]oxazine-6,1′-cyclobutane]-3-carboxamide] | 63 | > 25
3 | Cn1ncc2c(-c3nn4c(c3C(=O)N[C@H]3N=C(c5ccccc5)c5ccccc5NC3=O)OCCC4)cccc21 [Example 149, 2-(1-Methylindazol-4-yl)-N-[(3S)-2-oxo-5-phenyl-1,3-dihydro-1,4-benzodiazepin-3-yl]-6,7-dihydro-5H-pyrazolo[5,1-b][1,3]oxazine-3-carboxamide] | 194 | > 25
4 | O=C(N[C@H]1N=C(c2ccccc2)c2cccc(F)c2NC1=O)c1c(-c2ccc(CN3CCOCC3)cc2F)nn2c1OCCC2 [Example 101, 2-[2-Fluoro-4-(morpholin-4-ylmethyl)phenyl]-N-[(3S)-9-fluoro-2-oxo-5-phenyl-1,3-dihydro-1,4-benzodiazepin-3-yl]-6,7-dihydro-5H-pyrazolo[5,1-b][1,3]oxazine-3-carboxamide] | 123 | > 25
5 | O=C(N[C@H]1N=C(c2ccccc2)c2cccc(F)c2NC1=O)c1c(-c2ccncc2F)nn2c1OCCC2 [Example 80, N-[(3S)-9-fluoro-2-oxo-5-phenyl-1,3-dihydro-1,4-benzodiazepin-3-yl]-2-(3-fluoropyridin-4-yl)-6,7-dihydro-5H-pyrazolo[5,1-b][1,3]oxazine-3-carboxamide] | 64 | > 25
6 | O=C(N[C@H]1N=C(c2ccccc2)c2cccc(F)c2NC1=O)c1c(-c2ccccc2F)nn2c1OCCC2 [Example 21, N-[(3S)-9-fluoro-2-oxo-5-phenyl-1,3-dihydro-1,4-benzodiazepin-3-yl]-2-(2-fluorophenyl)-6,7-dihydro-5H-pyrazolo[5,1-b][1,3]oxazine-3-carboxamide] | 64 | > 25
7 | CCN(CC)CC1COc2c(C(=O)N[C@H]3N=C(c4ccccc4)c4cccc(F)c4NC3=O)c(-c3ccccc3F)nn2C1 (stereo partly drawn) [Example 164, 6-(Diethylaminomethyl)-N-[(3S)-9-fluoro-2-oxo-5-phenyl-1,3-dihydro-1,4-benzodiazepin-3-yl]-2-(2-fluorophenyl)-6,7-dihydro-5H-pyrazolo[5,1-b][1,3]oxazine-3-carboxamide] | 87 | > 25
8 | CC(C)Nc1ccc(-c2nn3c(c2C(=O)N[C@H]2N=C(c4ccccc4)c4ccccc4NC2=O)OCC2(CC2)C3)cn1 [Example 178, 2-[6-(Propan-2-ylamino)pyridin-3-yl]-N-[(3S)-2-oxo-5-phenyl-1,3-dihydro-1,4-benzodiazepin-3-yl]spiro[5,7-dihydropyrazolo[5,1-b][1,3]oxazine-6,1′-cyclopropane]-3-carboxamide] | 75 | > 25
9 | C[C@@H]1CCn2nc(-c3ccc(F)cc3F)c(C(=O)N[C@H]3N=C(c4ccccc4)c4cccc(F)c4NC3=O)c2O1 [Example 82, (5R)-2-(2,4-Difluorophenyl)-5-methyl-N-[(3S)-9-fluoro-2-oxo-5-phenyl-1,3-dihydro-1,4-benzodiazepin-3-yl]-6,7-dihydro-5H-pyrazolo[5,1-b][1,3]oxazine-3-carboxamide] | 31 | > 25
10 | Cc1cccc(F)c1-c1nn2c(c1C(=O)N[C@H]1N=C(c3ccccc3)c3cccc(F)c3NC1=O)OCCC2 [Example 140, 2-(2-Fluoro-6-methylphenyl)-N-[(3S)-9-fluoro-2-oxo-5-phenyl-1,3-dihydro-1,4-benzodiazepin-3-yl]-6,7-dihydro-5H-pyrazolo[5,1-b][1,3]oxazine-3-carboxamide] | 38 | > 25
11 | Cc1cc(-c2nn3c(c2C(=O)N[C@H]2N=C(c4ccccc4)c4cccc(F)c4NC2=O)O[C@H](C)CC3)c(F)cn1 [Example 79, (5R)-2-(5-Fluoro-2-methylpyridin-4-yl)-N-[(3S)-9-fluoro-2-oxo-5-phenyl-1,3-dihydro-1,4-benzodiazepin-3-yl]-5-methyl-6,7-dihydro-5H-pyrazolo[5,1-b][1,3]oxazine-3-carboxamide] | 115 | > 25
12 | CC(C)n1cc(-c2nn3c(c2C(=O)N[C@H]2N=C(c4ccccc4)c4cccc(F)c4NC2=O)OCCC3)cn1 [Example 148, N-[(3S)-9-fluoro-2-oxo-5-phenyl-1,3-dihydro-1,4-benzodiazepin-3-yl]-2-(1-propan-2-ylpyrazol-4-yl)-6,7-dihydro-5H-pyrazolo[5,1-b][1,3]oxazine-3-carboxamide] | 72 | > 25
13 | O=C(N[C@H]1N=C(c2ccccc2)c2cccc(F)c2NC1=O)c1c(-c2c(F)cccc2F)nn2c1OCC(CO)C2 (mixture of isomers) [Example 129, 2-(2,6-Difluorophenyl)-N-[(3S)-9-fluoro-2-oxo-5-phenyl-1,3-dihydro-1,4-benzodiazepin-3-yl]-6-(hydroxymethyl)-6,7-dihydro-5H-pyrazolo[5,1-b][1,3]oxazine-3-carboxamide] | 37 | > 25
14 | C[C@@H]1CCn2nc(-c3ccc(CO)cc3F)c(C(=O)N[C@H]3N=C(c4ccccc4)c4ccccc4NC3=O)c2O1 [Example 154, (5R)-2-[2-Fluoro-4-(hydroxymethyl)phe-nyl]-5-methyl-N-[(3S)-2-oxo-5-phenyl-1,3-dihydro-1,4-benzodiazepin-3-yl]-6,7-dihydro-5H-pyrazolo[5,1-b][1,3]oxazine-3-carboxamide] | 91 | > 25
15 | CC(C)Nc1ccc(-c2nn3c(c2C(=O)N[C@H]2N=C(c4ccccc4)c4cccc(F)c4NC2=O)O[C@H](C)CC3)cn1 [Example 67, (5R)-N-[(3S)-9-fluoro-2-oxo-5-phenyl-1,3-dihydro-1,4-benzodiazepin-3-yl]-2-[6-(isopropylamino)-3-pyridyl]-5-methyl-6,7-dihydro-5H-pyrazolo[4,1-b][1,3]oxazine-3-carboxamide] | 19 | > 25
16 | CC(C)c1ccc(-c2nn3c(c2C(=O)N[C@H]2N=C(c4ccccc4)c4cccc(F)c4NC2=O)O[C@H](C)CC3)cn1 [Example 70, (5R)-5-Methyl-2-(6-propan-2-ylpyridin-3-yl)-N-[(3S)-9-fluoro-2-oxo-5-phenyl-1,3-dihydro-1,4-benzodiazepin-3-yl]-6,7-dihydro-5H-pyrazolo[5,1-b][1,3]oxazine-3-carboxamide] | 50 | > 25
17 | C[C@@H]1CCn2nc(-c3ccc(CC(C)(C)O)nc3)c(C(=O)N[C@H]3N=C(c4ccccc4)c4cccc(F)c4NC3=O)c2O1 [Example 85, (5R)-2-[6-(2-Hydroxy-2-methylpropyl)pyridin-3-yl]-5-methyl-N-[(3S)-9-fluoro-2-oxo-5-phenyl-1,3-dihydro-1,4-benzodiazepin-3-yl]-6,7-dihydro-5H-pyrazolo[5,1-b][1,3]oxazine-3-carboxamide] | 121 | > 25
18 | Cc1ccc(-c2nn3c(c2C(=O)N[C@H]2N=C(c4ccccc4)c4cccc(F)c4NC2=O)O[C@H](C)CC3)c(C)n1 [Example 58, (5R)-2-(2,6-Dimethyl-3-pyridyl)-N-[(3S)-9-fluoro-2-oxo-5-phenyl-1,3-dihydro-1,4-benzodiazepin-3-yl]-5-methyl-6,7-dihydro-5H-pyrazolo[5,1-b][1,3]oxazine-3-carboxamide] | 188 | > 25
19 | CCN(Cc1ccccc1)CC1COc2c(C(=O)N[C@H]3N=C(c4ccccc4)c4cccc(F)c4NC3=O)c(-c3ccccc3F)nn2C1 (stereo partly drawn) [Example 174, 6-[[Benzyl(ethyl)amino]methyl]-N-[(3S)-9-fluoro-2-oxo-5-phenyl-1,3-dihydro-1,4-benzodiazepin-3-yl]-2-(2-fluorophenyl)-6,7-dihydro-5H-pyrazolo[5,1-b][1,3]oxazine-3-carboxamide] | 406 | > 25
20 | CO[C@H]1CCN(c2ccc(-c3nn4c(c3C(=O)N[C@H]3N=C(c5ccccc5)c5cccc(F)c5NC3=O)O[C@H](C)CC4)cn2)C1 [Example 146, (5R)-N-[(3S)-9-fluoro-2-oxo-5-phenyl-1,3-dihydro-1,4-benzodiazepin-3-yl]-2-[6-[(3S)-3-methoxypyrrolidin-1-yl]pyridin-3-yl]-5-methyl-6,7-dihydro-5H-pyrazolo[5,1-b][1,3]oxazine-3-carboxamide] | 294 | > 25
